From patent US20120220039A1, “METHOD AND SYSTEM FOR DETECTING RESIDUAL POISON IN HUMAN BODY” (THE HONG KONG UNIVERSITY OF SCIENCE AND TECHNOLOGY, priority 2009, published 2012)

Test: Drug analysis of abuser in different hair segments by HPLC-Chip-MS/MS
Type: in vivo, human
Excerpt: Parent drug and its metabolites normally appear in hair after 5-7 day once administered. Hair normally grows at 0.75-1 cm/month. Drug taking habit or history can be reflected by analysis in different hair segments.
Hair specimens were collected and cut into different lengths. With the application of different conditions in Examples 1-8, drug distribution in different hair segments was illustrated (FIGS. 29 and 30).

[1] = Hair segment sample no. 1, hair length 0-4 cm, time 0-3 month
[2] = Hair segment sample no. 2, hair length 4-8 cm, time 3-6 month
[3] = Hair segment sample no. 3, hair length 8-12 cm, time 6-9 month
[4] = Hair segment sample no. 4, hair length 12-16 cm, time 9-12 month
[5] = Hair segment sample no. 5, hair length 16-20 cm, time 12-15 month
[6] = Hair segment sample no. 6, hair length 20-24 cm, time 15-18 month
[7] = Hair segment sample no. 7, hair length 24-28 cm, time 18-21 month
[8] = Hair segment sample no. 8, hair length 28-32 cm, time 21-24 month

| Compound | Concentration in hair segment [1] | Concentration in hair segment [2] | Concentration in hair segment [3] | Concentration in hair segment [4] | Concentration in hair segment [5] | Concentration in hair segment [6] | Concentration in hair segment [7] | Concentration in hair segment [8] |
| --- | --- | --- | --- | --- | --- | --- | --- | --- |
| CN[C@@H](C)Cc1ccccc1 [Methamphetamine] | 117.6 pg/mg | 263.6 pg/mg | 198.2 pg/mg | 201.1 pg/mg | 107.3 pg/mg | 920 pg/mg | 156.3 pg/mg | 273.5 pg/mg |
| Methadone | 18.7 pg/mg | 18.3 pg/mg | 18.4 pg/mg | 18.3 pg/mg | 18.3 pg/mg | 18.3 pg/mg | 18.3 pg/mg | 18.4 pg/mg |
